According to US20120022083A1, “SMALL MOLECULE MODULATORS OF CELL ADHESION” (ADHEREX TECHNOLOGIES, INC., priority 2008, published 2012):

T1: Ncad-Fc protein (chicken N-cadherin ectodomain fused to the Fc fragment of mouse IgG2b) (Gallus gallus, UniProt P10288)
T1 construct: chicken N-cadherin ectodomain fused to the Fc fragment of mouse IgG2b
T1 sequence (P10288 165-729 limits assumed): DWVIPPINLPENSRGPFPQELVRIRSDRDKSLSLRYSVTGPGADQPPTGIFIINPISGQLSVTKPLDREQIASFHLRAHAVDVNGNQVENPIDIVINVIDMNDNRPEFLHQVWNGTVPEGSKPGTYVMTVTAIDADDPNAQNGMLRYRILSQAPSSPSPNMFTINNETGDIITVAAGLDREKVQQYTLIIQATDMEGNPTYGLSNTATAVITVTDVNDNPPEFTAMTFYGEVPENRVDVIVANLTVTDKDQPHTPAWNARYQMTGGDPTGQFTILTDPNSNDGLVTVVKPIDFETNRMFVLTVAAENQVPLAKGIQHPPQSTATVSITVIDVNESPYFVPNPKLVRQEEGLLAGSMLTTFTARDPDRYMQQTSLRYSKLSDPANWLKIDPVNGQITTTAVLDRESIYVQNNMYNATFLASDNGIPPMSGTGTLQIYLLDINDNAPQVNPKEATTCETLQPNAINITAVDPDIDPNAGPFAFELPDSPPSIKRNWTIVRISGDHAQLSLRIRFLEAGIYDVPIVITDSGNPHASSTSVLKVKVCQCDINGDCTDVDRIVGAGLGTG


Assays:
[1] = test system: retinal explants on substrate protein (Human N-cadherin-Fc or Laminin); assay: Culture of retinal explants and quantification of neurite outgrowth; format: cell-based, White Leghorn chick; settings: embryonic day 8 chick retina explants, examined approximately 20 hours after plating
Text: Tissue culture dishes were coated with nitrocellulose and allowed to dry (Lagenaur and Lemmon, [citation?] 1987). Substrate protein (Human N-cadherin-Fc or Laminin) was spread across the central region of each dish. Retinal explant cultures were made according to a previously described procedure (Halfter, W. et al., Dev. Biol., 95:56-64, 1983; Drazba, J. and Lemmon, V., Dev. Biol., 138:82-93, 1990). In brief, embryonic day 8 (stage 32-34 according to Hamburger and Hamilton, [citation?] 1951) White Leghorn chick eyes were dissected and the retina was flattened with the photoreceptor side down onto black nitrocellulose filters that had previously been incubated in concanavalin A. The filter was then cut into strips perpendicular to the optic fissure. Strips were inverted onto substrate-coated culture dishes so that the gang lion cell layer was directly adjacent to the substratum. N-cadherin small molecule antagonists were diluted in the culture medium and added at the time of plating. Neurite outgrowth was examined at approximately 20 hours after plating.
Neurite outgrowth from retina explants was catalogued using a SPOT RT digital camera and image acquisition software. The length of the five longest neurites per explant were measured (Burden-Gulley, S. M. and Brady-Kalnay, S. M. J. Cell Biol., 144:1323-1336, 1999). To measure neurite density, the region of neurite outgrowth was outlined to define the region of interest and the neurites were highlighted using Metamorph software. Data from similar experimental conditions were combined, analyzed by Student's t test and plotted.

[2] = biological target: T1, Ncad-Fc protein (chicken N-cadherin ectodomain fused to the Fc fragment of mouse IgG2b); assay: Ncad-Fc bead-bead aggregation assay; format: biochemical; settings: N-cadherin coated Dynabeads, 30 minutes to 1 hour at 37° C.
Experimental: Compounds of the invention were assayed according to the following procedures.
(§1) 10 μl of magnetic Dynabeads® Protein A (Prod. No. 100.01) were pipetted into a 1.5 ml eppendorf tube and washed with 0.5 ml of PBS (1×), 0.1% Tween 20, and 2 mM EGTA using the Dynal MPC-S Magnetic Particle Concentrator. Supernatant was aspirated, the magnet was removed and beads were washed once more with same buffer using the Dynal MPC-S Magnetic Particle Concentrator. Following this supernatant was once again removed and the beads were resuspended in 10 μl of PBS (1×), 0.1% Tween 20, and 2 mM EGTA buffer.
(§2) An equal 10 ul volume of Ncad-Fc protein (0.25 mg/10 μl, chicken N-cadherin ectodomain fused to the Fc fragment of mouse IgG2b) or human Fc (Jackson Immunoresearch, concentration 2.3 mg/ml) suspended in PBS (1×), 0.1% Tween 20, 2 mM EGTA and 1% BSA (Sigma, Prod. No. A0281) was added and incubated for 1-2 hours at room temperature on the Vortex Genie 2, followed by three washes in 0.5 ml of the same buffer. The beads were then resuspended in 80 μl PBS (1×) plus 1% BSA (dilution 1/8) and kept on ice.
The aggregation assay was performed in duplicates in 12 well/6 mm slides (CEL-LINE/ERIE SCIENTIFIC CO. Prod. No. 10-103). Experimentation was conducted in eppendorf tubes containing […] of DMEM medium ([…] glucose, Gibco Prod. No. 21 885-025)+10% Fetal Calf Serum (FCS) containing an N-cadherin inhibitor or calcium chelator (EDTA, EGTA) with the addition of 4 μl of N-cadherin coated Dynabeads®. The resulting bead solutions were gently mixed on ice followed by 50 μl of solution deposited per well.
Slides were incubated for 30 minutes to 1 hour at 37° C. and 5% CO2. After incubation two images per well were recorded on an inverted microscope (Nikon Diaphot) at 20× magnification, with an 8 Volt illumination using a Nikon D100. Images were analyzed using the Bead Counting software program from Metamorph (Meta Imaging Series 6.2r6).
In this assay, in the absence of inhibitor, the beads bind to each other and aggregate due to dimerization of the N-cadherin molecules on the surfaces of the beads. Accordingly, compounds effective for disrupting N-cadherin-mediated cell adhesion can be identified on the basis of whether they disrupt bead-bead aggregation in this assay.

[3] = biological target: the molecule itself; assay: bead-bead aggregation assay, Ncad-Fc on Protein A Dynabeads, microscopy and bead counting
Experimental: as §1, §2
The aggregation assay was performed in duplicates in 12 well/6 mm slides (CEL-LINE/ERIE SCIENTIFIC CO. Prod. No. 10-103). […]

Row | Molecule | inhibit neurite outgrowth [1] | active in Ncad-Fc bead-bead aggregation assay (disrupt bead-bead aggregation) [2] | binding result [3]
1 | CC(C)(C)c1ccc(-c2nnc(C3CCC3)[nH]2)cc1 [compound 25-1, 3-(4-Tert-Butylphenyl)-5-Cyclobutyl-4H-[1,2,4]Triazole] | inhibit neurite outgrowth |  | 
2 | Cc1nnc(Cc2ccccc2)[nH]1 [compound 10-1, 3-Benzyl-5-Methyl-4H-[1,2,4]Triazole] |  | active | 
3 | COc1cccc(-c2nnc(C)[nH]2)c1 [compound 11-1, 3-(3-Methoxyphenyl)-5-Methyl-4H-[1,2,4]Triazole] |  | active | 
4 | Sc1nnc(-c2cccs2)[nH]1 [compound 69-4] | inhibit neurite outgrowth |  | 
5 | Cc1nnc(-c2ccc(C(C)(C)C)cc2)[nH]1 [compound 53-1, 3-(4-Tert-Butylphenyl)-5-Methyl-4H-[1,2,4]Triazole] | inhibit neurite outgrowth | active | 
6 | COc1ccc(-c2nnc(S)[nH]2)cc1 [compound 69-2] | inhibit neurite outgrowth |  | 
7 | CC(C)c1nnc(-c2ccc(C(C)(C)C)cc2)[nH]1 [compound 21-1, 3-(4-Tert-Butylphenyl)-5-Isopropyl-4H-[1,2,4]Triazole] | inhibit neurite outgrowth |  | 
8 | Cc1cnc(-c2ccc(C(C)(C)C)cc2)[nH]1 [compound 64-1, 2-(4-Tert-Butylphenyl)-5-Methyl-1H-Imidazole] | inhibit neurite outgrowth |  | 
9 | CC(C)(C)c1ccc(-c2nnc(N)[nH]2)cc1 [compound 50-1, 5-(4-Tert-Butylphenyl)-4H-[1,2,4]Triazol-3-Ylamine] |  | active | 
10 | Cc1nnc(-c2ccncc2)[nH]1 [compound 67-1, 4-(5-Methyl-4H-[1,2,4]Triazol-3-Yl)-Pyridine] |  | active | 
11 | CC(C)(C)c1ccc(-c2nnc(C3CC3)[nH]2)cc1 [compound 22-1, 3-(4-Tert-Butylphenyl)-5-Cyclopropyl-4H-[1,2,4]Triazole] | inhibit neurite outgrowth |  | 
12 | CC(C)(C)c1ccc(-c2nnc(-c3cnccn3)[nH]2)cc1 [compound 28-1, 2-[5-(4-Tert-Butylphenyl)-4H-[1,2,4]Triazol-3-Yl]-Pyrazine] | inhibit neurite outgrowth |  | 
13 | Cc1nnc(-c2ccccn2)[nH]1 [compound 65-1, 2-(5-Methyl-4H-[1,2,4]Triazol-3-Yl)-Pyridine] |  | active | 
14 | Cn1nc(-c2ccc(C(C)(C)C)cc2)nc1S [compound 46-1, 5-(4-Tert-Butylphenyl)-2-Methyl-2H-[1,2,4]Triazole-3-Thiol] | inhibit neurite outgrowth |  | 
15 | CC(C)(C)c1ccc(-c2nnc(C(F)F)[nH]2)cc1 [compound 57-1, 3-(4-Tert-Butylphenyl)-5-Difluoromethyl-4H-[1,2,4]Triazole] | inhibit neurite outgrowth |  | 
16 | Cc1nnc(-c2cccs2)[nH]1 [compound 68-1, 3-Methyl-5-Thiophen-2-Yl-4H-[1,2,4]Triazole] |  | active | 
17 | CCc1nnc(-c2ccc(C(C)(C)C)cc2)[nH]1 [compound 1-1, 3-(4-Tert-Butylphenyl)-5-Ethyl-4H-[1,2,4]Triazole] | inhibit neurite outgrowth | active | 
18 | Cc1nnc(-c2ccc(Cl)cc2)[nH]1 [compound 9-1, 3-(4-Chlorophenyl)-5-Methyl-4H-[1,2,4]Triazole] |  | active | 
19 | CC(C)(C)c1ccc(-c2nnc(Cc3ccccc3)[nH]2)cc1 [compound 26-1, 3-Benzyl-5-(4-Tert-Butylphenyl)-4H-[1,2,4]Triazole] | inhibit neurite outgrowth |  | 
20 | Cc1nnc(-c2ccccc2Cl)[nH]1 [compound 7-1, 3-(2-Chlorophenyl)-5-Methyl-4H-[1,2,4]Triazole] |  | active | 
21 | COc1ccc(-c2nnc(C)[nH]2)cc1 [compound 12-1, 3-(4-Methoxyphenyl)-5-Methyl-4H-[1,2,4]Triazole] |  | active | 
22 | Cc1nnc(-c2ccc(Cl)c(Cl)c2)[nH]1 [compound 14-1, 3-(3,4-Dichlorophenyl)-5-Methyl-4H-[1,2,4]Triazole] |  | active | 
23 | Cc1nnc(-c2cccnc2)[nH]1 [compound 66-1, 3-(5-Methyl-4H-[1,2,4]Triazol-3-Yl)-Pyridine] |  | active | 
24 | Cc1cccc(-c2nnc(C)[nH]2)c1 [compound 5-1, 3-Methyl-5-M-Tolyl-4H-[1,2,4]Triazole] |  | active | 
25 | Cc1nnc(-c2cccc(Cl)c2)[nH]1 [compound 8-1, 3-(3-Chlorophenyl)-5-Methyl-4H-[1,2,4]Triazole] |  | active | 
26 | Ncad-Fc protein (chicken N-cadherin ectodomain fused to the Fc fragment of mouse IgG2b) (Fc fusion, UniProt P10288 165-729, looked up, extracellular domain; Captured on magnetic Dynabeads Protein A for the bead-bead aggregation assay; also called N-cadherin coated Dynabeads; not shown: Fc fragment of mouse IgG2b) DWVIPPINLPENSRGPFPQELVRIRSDRDKSLSLRYSVTGPGADQPPTGIFIINPISGQLSVTKPLDREQIASFHLRAHAVDVNGNQVENPIDIVINVIDMNDNRPEFLHQVWNGTVPEGSKPGTYVMTVTAIDADDPNAQNGMLRYRILSQAPSSPSPNMFTINNETGDIITVAAGLDREKVQQYTLIIQATDMEGNPTYGLSNTATAVITVTDVNDNPPEFTAMTFYGEVPENRVDVIVANLTVTDKDQPHTPAWNARYQMTGGDPTGQFTILTDPNSNDGLVTVVKPIDFETNRMFVLTVAAENQVPLAKGIQHPPQSTATVSITVIDVNESPYFVPNPKLVRQEEGLLAGSMLTTFTARDPDRYMQQTSLRYSKLSDPANWLKIDPVNGQITTTAVLDRESIYVQNNMYNATFLASDNGIPPMSGTGTLQIYLLDINDNAPQVNPKEATTCETLQPNAINITAVDPDIDPNAGPFAFELPDSPPSIKRNWTIVRISGDHAQLSLRIRFLEAGIYDVPIVITDSGNPHASSTSVLKVKVCQCDINGDCTDVDRIVGAGLGTG |  |  | binds
